row,Compound,melting point
1,"CCCc1ccnc2c(=O)[nH]c(-c3cc(S(=O)(=O)N4CCNCC4)ccc3OCC)nc12 [Example 3, 2-[2-Ethoxy-5-(1-piperazinylsulphonyl)phenyl]-8-n-propylpyrido[3,2-d]pyrimidin-4(3H)-one]",178 to 180 °C
2,"CCCc1ccnc2c(=O)[nH]c(-c3cc(S(=O)(=O)N4CCC(C(=O)OCC)CC4)ccc3OCC)nc12 [Example 4, 2-[2-Ethoxy-5-(4-ethoxycarbonylpiperidinosulphonyl)phenyl]-8-n-propylpyrido[3,2-d]pyrimidin-4(3H)-one]",204 to 205 °C
3,"CCCc1ccnc2c(=O)[nH]c(-c3cc(S(=O)(=O)NC)ccc3OCC)nc12 [Example 6, 2-[2-Ethoxy-5-(methylsulphamoyl)phenyl]-8-n-propylpyrido[3,2-d]pyrimidin-4(3H)-one]",216 to 219 °C
4,"CCCOc1ccccc1-c1nc2nnc(SC)nc2c(=O)[nH]1 [Example 75, 5,6-Dihydro-3-methylthio-5-oxo-7-(2-propoxyphenyl)pyrimido[5,4-e][1,2,4]triazine]",195 to 197 °C
5,"CCCOc1ccccc1-c1nc2nc(SC)nnc2c(=O)[nH]1 [Example 79, 3-Methylthio-8-oxo-6-(2-propoxyphenyl)-7,8-dihydropyrimido[4,5-e][1,2,4]triazine]",247 to 249 °C
